Measured values reported in patent US20120022121A1, “INDOLES, DERIVATIVES AND ANALOGS THEREOF AND USES THEREFOR” (priority 2007, published 2012).
Read-outs that look alike come from different tables or passages of the source.

What was measured:
[1] = tested on: HEK293-pcDNA3-10; assay: Growth inhibition assay (96 h); type: cell-based, human; conditions: HEK293-pcDNA3-10 (control for BCRP)
Description: (§1) MTT (3-(4,5-dimethylthiazol-2-yl)-2,5-diphenyltetrazolium bromide) assay was also used for the leukemia cell lines. […] Cells were stained with SRB solution or MTT solution.

[2] = tested on: HEK293-pcDNA3.1; assay: Growth inhibition assay (96 h); type: cell-based, human; conditions: HEK293-pcDNA3.1 (control for MRP)
Description: as §1

[3] = tested on: HEK293-MRP2; assay: Growth inhibition assay (96 h); type: cell-based, human; conditions: for resistance factor (ratio of IC50 resistant subline to parental cell line): HEK293-MRP2 vs HEK293-pcDNA3.1
[4] = tested on: HEK293-482R2; assay: Growth inhibition assay (96 h); type: cell-based, human; conditions: HEK293-482R2, BCRP over-expressed, 96 h
[5] = tested on: HEK293-MRP1; assay: Growth inhibition assay (96 h); type: cell-based, human; conditions: for resistance factor (ratio of IC50 resistant subline to parental cell line): HEK293-MRP1 vs HEK293-pcDNA3.1
[6] = tested on: LNCaP; assay: Cell viability SRB assay, 96 h; type: cell-based; conditions: Homo sapiens
Protocol: (§2) Cell viability (LNCaP, PC-3 prostate, DU145, PPC-1, and TSU-Pr1 prostate cancer cell lines, HT-29 colon cancer cell line, and MCF-7 breast cancer cell line) was quantitated using the sulforhodamine B (SRB) assay after 96 h coincubation with different concentrations of compound in 96-well plates. Cell viability of leukemia cells (K562 and doxorubicin-resistant K562/Dox) was quantitated by MTT assay after 96 h coincubation with different concentrations of compound in 96-well plates. Drug-induced apoptosis was determined by anti-histone ELISA assay and DNA laddering. Cell cycle progression was assessed by propidium iodide staining and fluorescence-activated cell sorting (FACS) analysis. In vitro tubulin polymerization assay was determined by CytoDYNAMIX ScreenTM3 (CDS-03) kits according to the manufacturer's instructions. Anti-apoptosis protein (Bcl-2 and Bcl-xl) and pro-apoptosis protein (Bax) were examined in LNCaP and PC-3 after 24 h incubation with different concentrations of compound 13 by Western blot assay. In vivo PC-3 xenograft studies were conducted by i.v. dosing of 50 mg/kg, 100 mg/kg and 150 mg/kg for 2 weeks.
(§3) Cells were plated in 96-well plates at a density of 800-5,000 cells/well, depending on the cell line, in their required growth media containing 10% fetal bovine serum. Preliminary studies were performed with each cell line using a variety of cell densities and incubation times to determine appropriate seeding densities. The compound of interest was dissolved in DMSO, diluted in cell culture medium (final DMSO concentration was less than 0.5% v/v), and added to quadruplicate wells at final concentrations ranging from 0 to 100 μM. Control wells to which only drug-free vehicle was added were included as negative controls.
(§4) Cells were incubated for 96 hour at 37° C. in a humidified atmosphere containing 5% carbon dioxide.
(§5) Cells were stained with SRB solution. […] WinNonlin was provided by a Pharsight Academic License to The Ohio State University.

[7] = tested on: HT-29; assay: Cell viability SRB assay, 96 h; type: cell-based; conditions: Homo sapiens, HT-29, 96 h
Protocol: as §2, §3, §4, §5

[8] = tested on: MCF-7; assay: Cell viability SRB assay, 96 h; type: cell-based; conditions: Homo sapiens, MCF7; MCF-7, 96 h
Protocol: as §2, §3, §4, §5

[9] = tested on: DU-145; assay: Cell viability SRB assay, 96 h; type: cell-based; conditions: Homo sapiens, DU-145, 96 h
Protocol: as §2, §3, §4, §5

[10] = tested on: PC-3; assay: Cell viability SRB assay, 96 h; type: cell-based; conditions: Homo sapiens, PC-3, 96 h
Protocol: as §2, §3, §4, §5

[11] = tested on: TSU; assay: Cell viability SRB assay, 96 h; type: cell-based; conditions: Homo sapiens, TSU (TSU-Pr1)
Protocol: as §2, §3, §4, §5

[12] = tested on: PPC-1; assay: Cell viability SRB assay, 96 h; type: cell-based; conditions: Homo sapiens, PPC-1, 96 h
Protocol: as §2, §3, §4, §5

[13] = tested on: MCF-7; conditions: MCF-7 cells, literature value (Rose 1995); cited from earlier work
[14] = tested on: K562/Dox; assay: Cell viability MTT assay, 96 h; type: cell-based; conditions: Homo sapiens, doxorubicin-resistant
Protocol: (§6) Cells were seeded in 96-well plates and incubated with different concentrations of compound 13, 68 or other anticancer drugs for 96 h. Cell viability was quantitated by MTT assay. […] Table 4 is a comparison of the IC50 of compounds 13, 68 and other anticancer drugs in the K562 and doxorubicin-resistant K562/DOX cell lines.

[15] = tested on: K562; assay: Cell viability MTT assay, 96 h; type: cell-based; conditions: Homo sapiens
Protocol: as §6

[16] = tested on: PC-3 xenograft; assay: Antitumor activity in PC-3 xenograft; type: in vivo, Balb/c mice; conditions: 15 mg/kg/d for 4 days
Protocol: PC-3 tumor cells (2×10^6 cells) were suspended in saline and injected S.C. in both flanks of recipient mice (n=15). Tumor size was measured every other day and volume calculated as V=π/6*(length)x(width)^2 (75). […] Tumor growth and body weight was monitored every other day for the remainder of the study.

[17] = tested on: HT-29; conditions: HT-29 cells, literature value (Rose 1995); cited from earlier work
[18] = tested on: human cancer cell lines from prostate, colon, breast, and bladder; assay: Cell proliferation by SRB assay, panel of cell lines; type: cell-based; conditions: read-out: IC50 values, range over cell lines
Protocol: as §1
Cell proliferation was measured by SRB assay.

[19] = tested on: K562; assay: Growth inhibition assay (MTT, 96 h); type: cell-based; conditions: Homo sapiens, K562 (parental)
Description: as §1

[20] = tested on: MES-SA/DX5; assay: Growth inhibition assay (96 h); type: cell-based, human; conditions: MES-SA/DX5 vs MES-SA (P-gp)
Description: as §1

[21] = tested on: PC-3; assay: Growth inhibition assay (SRB, 96 h); type: cell-based, human; conditions: Homo sapiens, PC-3, 96 h
Description: as §1

[22] = tested on: HT-29; assay: Growth inhibition assay (SRB, 96 h); type: cell-based; conditions: Homo sapiens, HT-29, 96 h
Description: as §1

[23] = tested on: MCF-7; assay: Growth inhibition assay (SRB, 96 h); type: cell-based; conditions: Homo sapiens, MCF7; MCF-7, 96 h
Description: as §1

[24] = tested on: TSU-Pr1; assay: Growth inhibition assay (SRB, 96 h); type: cell-based; conditions: Homo sapiens, TSU-Pr1, 96 h
Description: as §1

[25] = tested on: MES-SA/DX5 xenografts; assay: In vivo antitumor efficacy, MES-SA/DX5 xenograft; conditions: MES-SA/DX5 xenograft, 5 mg/kg, q2d, i.p.
Protocol: (§7) The control group was treated with vehicle (10% DMSO in PEG300).

[26] = tested on: MRP2 (over-expressed in the cells); assay: Growth inhibition assay (96 h); type: cell-based, human; conditions: human, HEK293 cells over-expressing MRP2 (HEK293-MRP2); HEK293-MRP2, MRP2 over-expressed, 96 h
[27] = tested on: PC-3 cells; assay: Indirect immunofluorescence microscopy of microtubules; type: cell-based, human; conditions: 24 h, anti-α-tubulin-FITC
Protocol: PC-3 cells were plated on poly-D-lysine coated glass cover slips in 6-well plates (5×10^4 cells/well) the day before treatment. After cells were incubated with cytotoxic agents at 37° C. for 24 h, cells were fixed on the cover slips with 4% formaldehyde in PBS for 10 min and permeabilized by 2% Triton-X in PBS for 5 min at rt. Fixed cells were blocked with 3% bovine serum albumin in TBST for 30 min and incubated with anti-α-tubulin-FITC antibody (1:100 dilution) at 4° C. overnight. Cover slips were mounted on slides using mounting medium with 4′,6-diamidino-2-phenylindole (DAPI), followed by microscopic analysis with a Zeiss Axioplan 2 fluorescent microscope (Carl Zeiss, Thornwood, N.Y.). Images were acquired with a Zeiss Axiocam HRc, using Zeiss AxioVision.

[28] = tested on: PC-3 xenografts; assay: In vivo antitumor efficacy, PC-3 xenograft; conditions: 5 mg/kg
[29] = tested on: PC-3 cells; assay: Cell cycle analysis (PI staining, FACS); type: cell-based, human; conditions: Homo sapiens; PC-3, 24 h, 0.1 nM to 1 μM; read-out: EC50 of cell cycle arrest in G2M phase
Protocol: Cell cycle distribution was determined by propidium iodide (PI) staining. Treated cells were washed with PBS and fixed with 70% ice-cold ethanol overnight. Fixed cells were then stained with 20 μg/mL of PI in the presence of RNase A (300 μg/mL) at 37° C. for 30 min. Cell cycle distribution was analyzed by fluorescence-activated cell sorting (FACS).

[30] = tested on: MES-SA xenografts; assay: In vivo antitumor efficacy, MES-SA xenograft; set-up: species or system mice; conditions: 5 mg/kg, q2d, i.p.
Protocol: as §7

[31] = tested on: MRP1 (over-expressed in the cells); assay: Growth inhibition assay (96 h); type: cell-based, human; conditions: human, HEK293 cells over-expressing MRP1 (HEK293-MRP1); HEK293-MRP1, MRP1 over-expressed, 96 h
[32] = tested on: K562/Dox; assay: Growth inhibition assay (MTT, 96 h); type: cell-based, human
Description: as §1

Question: For `CCc1c2c(nc3ccc(O)cc13)-c1cc3c(c(=O)n1C2)COC(=O)[C@]3(O)CC` [SN-38], which IC50 [1] is on record?
Answer: 0.0029 ± 0.0003 µM

Question: And the IC50 [2]?
Answer: 0.0084 ± 0.001 µM

Question: And the IC50 ([3]; HEK293-MRP2, MRP2 over-expressed, 96 h)?
Answer: 0.0124 ± 0.001 µM

Question: What about the IC50 [4] of the same compound?
Answer: 0.0943 ± 0.02 µM

Question: And the IC50 ([5]; HEK293-MRP1, MRP1 over-expressed, 96 h)?
Answer: 0.0177 ± 0.001 µM

Question: What does the source list for `COc1cccc(C(=O)c2cccc(-c3cc4ccccc4[nH]3)c2)c1` [Compound 81, [3-(1H-Indol-2-yl)-phenyl]-(3-methoxy-phenyl)-methanone]?
Answer: IC50 [6]: 0.047 µM; IC50 [7]: 0.1 µM; IC50 [8]: 0.043 µM; IC50 [9]: 0.129 µM; IC50 [10]: 0.072 ± 0.013 µM; IC50 [11]: 0.042 µM; IC50 [12]: 0.043 µM

Question: Which results are given for `CC(=O)O[C@H]1C(=O)[C@@]2(C)[C@H]([C@H](OC(=O)c3ccccc3)[C@]3(O)C[C@H](OC(=O)[C@H](O)[C@@H](NC(=O)c4ccccc4)c4ccccc4)C(C)=C1C3(C)C)[C@]1(OC(C)=O)CO[C@@H]1C[C@@H]2O` [Taxol]?
Answer: IC50 [13]: ~0.0025 µM; IC50 [14]: 1.48 ± 0.48 µM; IC50 [15]: 0.0122 ± 0.0002 µM; PC-3 xenograft growth [16]: potently suppressed; body weight [16]: significant decreases in body weight; IC50 [17]: ~0.0025 µM

Question: Which results are given for `CC(=O)O[C@@]12CO[C@@H]1C[C@H](O)[C@@]1(C)C(=O)[C@H](O)C3=C(C)[C@@H](OC(=O)[C@H](O)[C@@H](NC(=O)OC(C)(C)C)c4ccccc4)C[C@@](O)([C@@H](OC(=O)c4ccccc4)[C@H]21)C3(C)C` [Docetaxel]?
Answer: IC50 [18]: 0.0011 to 0.0063 µM; IC50 [19]: 0.0027 ± 0.001 µM; resistance factor (ratio of IC50 resistant subline to parental cell line) [20]: (13); IC50 ([2]; Homo sapiens): 0.0044 ± 0.002 µM; IC50 [21]: 0.006 µM; IC50 [22]: 0.0041 ± 0.0002 µM; IC50 [23]: 0.0038 ± 0.0008 µM; IC50 [24]: 0.0026 ± 0.0009 µM; TGI (tumor growth inhibition) [25]: 9%; IC50 at 96 h [26]: 0.0331 ± 0.004 µM; resistance factor (ratio of IC50 resistant subline to parental cell line) [3]: (7.6); resistance factor (ratio of IC50 resistant subline to parental cell line) ([3]; listed as docetaxel): 7.6; microtubule changes by immunofluorescence [27]: stabilization of microtubules; end of study survival rate ([28]; PC-3 xenograft, 2 days/week): less than 30%; mice survived after 3 weeks ([28]; male, nu/nu, mouse, in vivo, 3 weeks): 70%; EC50 [29]: 0.014 µM; TGI (tumor growth inhibition) [30]: 54%; IC50 at 96 h [31]: 0.0313 ± 0.005 µM; resistance factor (ratio of IC50 resistant subline to parental cell line) [5]: (7.2); resistance factor (ratio of IC50 resistant subline to parental cell line) ([5]; listed as docetaxel): 7.2; IC50 ([32]; Homo sapiens, K562/Dox, P-gp over-expressed, 96 h): 0.548 ± 0.076 µM; resistance factor (ratio of IC50 resistant subline to parental cell line) ([32]; K562/Dox vs K562 (P-gp)): (203)

Question: For `COc1cccc2c1C(=O)c1c(O)c3c(c(O)c1C2=O)C[C@@](O)(C(=O)CO)C[C@@H]3O[C@H]1C[C@H](N)[C@H](O)[C@H](C)O1` [Doxirubicin], which IC50 [14] is on record?
Answer: 0.859 ± 0.0268 µM

Question: What about the IC50 [15] of the same compound?
Answer: 0.0271 ± 0.0055 µM
